One experiment deals with T1, cathepsin S (Homo sapiens, UniProt P25774).
T1 construct: purchased Calbiochem 219343; host or cells: E. coli
The experiment can be described thus: Cathepsin S enzyme inhibition in vitro (kinetic fluorescence assay). It is filed as biochemical. The settings on record: recombinant human cathepsin S vs calpain I. The procedure:
(§1) The following solutions and buffers were employed: • HBS (for 40 ml): 800 μl M HEPES; 2.16 ml 100 mM KCl; 4.8 ml 1M NaCl; 3.59 ml 5% glucose; 60 μl μM MgSO4; 400 μl 100 mM Na pyruvate, 28.19 ml water; pH 7.2-7.5. • lysis buffer (for 20 ml): 400 μl M Tris pH 8.2; 2.74 ml 1M NaCl; 520 μl 0.5M EDTA; 2 ml 10% triton X-100; 0.8 ml (=1:25) CompletePlus (1 tablet/2 ml H2O); 200 μl 100 mM Pefabloc; 13.34 ml water, pH 8.2. • TBST (10×) (for 1 l): 100 mM Tris (12.1 g); 1.5M NaCl (87 g); 1% Tween 20 (10 g), adjusted to pH 8. I Enzyme Inhibition In Vitro: • Testing for blockade of the corresponding enzymic activities was carried out by means of kinetic fluorescence assays (excitation 390 nm, emission 460 nm). • Apparent Ki values were calculated from the experimentally determined IC50 values by the Cheng-Prussoff relation assuming a reversible competitive enzyme inhibition. The Km values of the substrates used under the assay conditions indicated above were: 90 μM (Z-Phe-Arg-AMC, cathepsin B), 10 μM (Z-Gly-Pro-Arg-AMC, cathepsin K), 2 μM (Z-Phe-Arg-AMC, cathepsin L), and 30 μM (Z-Val-Val-Arg-AMC, cathepsin S). • The indicated Ki values are averages of the inhibition constants calculated on the basis of 2 to 4 independent dose-effect plots.
(§2) The following assays were used: • 1. Calpain I: • 20 nM calpain-I—isolated from human erythrocytes (Calbiochem #208713), 100 μM Suc-Leu-Tyr-AMC (Bachem #1-1355) as substrate in buffer with 62 mM imidazole, 0.3 mM CaCl2, 0.10% CHAPS, 0.05% BSA, 1 mM DTT at pH 7.3 and room temperature. • 2. Cathepsin B: • 0.25 nM cathepsin B—isolated from human liver (Calbiochem #219362), 100 μM Z-Phe-Arg-AMC (Bachem #I-1160) as substrate 50 mM MES, 2 mM EDTA, 0.05% Brij 35, 2.5 mM L-cysteine, pH 6.0, room temperature. • 3. Cathepsin K: • 3 nM cathepsin K—activated from recombinant human procathepsin K from E. coli (Calbiochem #342001), 10 μM Z-Gly-Pro-Arg-AMC (Biomol #P-142) as substrate in 50 mM MES, 2 mM EDTA, 0.05% Brij 35, 2.5 mM L-cysteine, pH 6.0, room temperature. • 4. Cathepsin L: • 1 nM cathepsin L—isolated from human liver (Calbiochem #219402), 2 μM Z-Phe-Arg-AMC (Bachem #1-1160) as substrate in 50 mM MES, 2 mM EDTA, 0.05% Brij 35, 2.5 mM L-cysteine, pH 6.0, room temperature. • 5. Cathepsin S: • 0.5 nM recombinant human cathepsin S from E. coli (Calbiochem #219343), 20 μM Z-Val-Val-Arg-AMC (Bachem #1-1540) as substrate in 50 mM MES, 2 mM EDTA, 0.05% Brij 35, 2.5 mM L-cysteine, pH 6.0, room temperature. • The results of the in vitro determination are indicated in Table 1. The following abbreviations are used in Table 1: • The “Calpain activity” column, ++ stands for a calpain Ki (Ki(calpain)) of ≦40 nM and + means: 40 nM<Ki(Calpain)≦100 nM. • The “Sel. cat. B” column indicates the Ki(cathepsin B)/Ki(calpain) ratio. In this connection, ++ means a Ki(cathepsin B)/Ki(calpain) ratio of ≧30 and + means 10≦Ki(cathepsin B)/Ki(calpain)<30. • The “Sel. cat. K” column indicates the Ki(cathepsin K)/Ki(calpain) ratio. In this connection, ++ means a Ki(cathepsin K)/Ki(calpain) ratio of ≧30 and + means 10≦Ki(cathepsin K)/Ki(calpain)<30. • The “Sel. cat. L” column indicates the Ki(cathepsin L)/Ki(calpain) ratio. In this connection, ++ means a Ki(cathepsin L)/Ki(calpain) ratio of ≧50 and + means 30≦Ki(cathepsin L)/Ki(calpain)<50. • The “Sel. cat. S” column indicates the Ki(cathepsin S)/Ki(calpain) ratio. In this connection, ++ means a Ki(cathepsin S)/Ki(calpain) ratio of ≧100 and + means 50≦Ki(cathepsin S)/Ki(calpain)<100.

Another experiment addresses T2, cathepsin L (Homo sapiens, UniProt P07711).
T2 construct: cathepsin L—isolated from human liver (Calbiochem #219402); purchased Calbiochem 219402; host or cells: human liver (tissue-derived)
Kind of experiment: Cathepsin L enzyme inhibition in vitro (kinetic fluorescence assay). The format is biochemical. As to conditions: cathepsin L isolated from human liver vs calpain I. Here is the method:
as §1, §2

Structures are written as SMILES.

T1 sequence (P25774 115-331): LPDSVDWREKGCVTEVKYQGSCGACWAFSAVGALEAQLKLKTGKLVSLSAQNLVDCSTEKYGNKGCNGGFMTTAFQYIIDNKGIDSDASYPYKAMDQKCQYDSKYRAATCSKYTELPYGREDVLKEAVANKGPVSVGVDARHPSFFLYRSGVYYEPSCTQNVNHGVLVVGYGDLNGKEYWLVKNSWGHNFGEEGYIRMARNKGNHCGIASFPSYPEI
T2 sequence (P07711 114-333): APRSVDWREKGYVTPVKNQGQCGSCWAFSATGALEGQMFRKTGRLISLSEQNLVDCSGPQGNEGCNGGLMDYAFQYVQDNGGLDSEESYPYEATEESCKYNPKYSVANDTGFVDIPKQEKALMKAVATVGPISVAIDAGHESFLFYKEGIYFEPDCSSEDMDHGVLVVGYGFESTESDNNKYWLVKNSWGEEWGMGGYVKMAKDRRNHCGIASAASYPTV

As to `NC(=O)C(=O)C(Cc1ccccc1)NC(=O)c1cccnc1-n1cnc(-c2ccc(Cl)cc2)c1` (centres unmarked) [Example 9, N-(3-Amino-1-benzyl-2,3-dioxopropyl)-2-[4-(4-chlorophenyl)-1H-imidazol-1-yl]nicotinamide], the “Sel cat. S: Ki(cathepsin S)/Ki(calpain) ratio” value at cathepsin S was “++ (++ means a Ki(cathepsin S)/Ki(calpain) ratio of ≧100)”. Besides, the “Sel cat. L: Ki(cathepsin L)/Ki(calpain) ratio” value at cathepsin L is given as “+ (+ means 30≦Ki(cathepsin L)/Ki(calpain)<50)”.
Take `COc1ccc(-c2cn(-c3ncccc3C(=O)NC(Cc3ccccc3)C(=O)C(N)=O)cn2)cc1` (centres unmarked) [Example 13, N-(3-Amino-1-benzyl-2,3-dioxopropyl)-2-[4-(4-methoxyphenyl)-1H-imidazol-1-yl]nicotinamide]: the “Sel cat. S: Ki(cathepsin S)/Ki(calpain) ratio” value at cathepsin S is reported as “+ (+ means 50≦Ki(cathepsin S)/Ki(calpain)<100)”. On cathepsin L, the “Sel cat. L: Ki(cathepsin L)/Ki(calpain) ratio” value is recorded as “++ (++ means a Ki(cathepsin L)/Ki(calpain) ratio of ≧50)”.
`CCCCC(NC(=O)c1cccnc1-n1cnc(-c2ccc(N3CCOCC3)cc2)c1)C(=O)C(N)=O.Cl` (centres unmarked) [Example 15, N-{1-[Amino(oxo)acetyl]pentyl}-2-[4-(4-morpholin-4-ylphenyl)-1H-imidazol-1-yl]nicotinamide hydrochloride]: at cathepsin S, the “Sel cat. S: Ki(cathepsin S)/Ki(calpain) ratio” value was “+ (+ means 50≦Ki(cathepsin S)/Ki(calpain)<100)”. Also, the “Sel cat. L: Ki(cathepsin L)/Ki(calpain) ratio” value at cathepsin L is recorded as “++ (++ means a Ki(cathepsin L)/Ki(calpain) ratio of ≧50)”.
Take `CCCCC(NC(=O)c1cccnc1-n1cnc(-c2ccc(C(F)(F)F)cc2)c1)C(=O)C(N)=O.Cl` (centres unmarked) [Example 17, N-{1-[Amino(oxo)acetyl]pentyl}-2-{4-[4-(trifluoromethyl)phenyl]-1H-imidazol-1-yl}nicotinamide hydrochloride]: the “Sel cat. S: Ki(cathepsin S)/Ki(calpain) ratio” value at cathepsin S is “+ (+ means 50≦Ki(cathepsin S)/Ki(calpain)<100)”. Further, at cathepsin L, the “Sel cat. L: Ki(cathepsin L)/Ki(calpain) ratio” value is listed as “++ (++ means a Ki(cathepsin L)/Ki(calpain) ratio of ≧50)”.
The like results for `Cl.NC(=O)C(=O)C(Cc1ccccc1)NC(=O)c1cccnc1-n1cnc(-c2ccc(C(F)(F)F)cc2)c1` (centres unmarked) [Example 18, N-(3-Amino-1-benzyl-2,3-dioxopropyl)-2-{4-[4-(trifluoromethyl)phenyl]-1H-imidazol-1-yl}nicotinamide hydrochloride] were, in that order, “++ (++ means a Ki(cathepsin S)/Ki(calpain) ratio of ≧100)” and “+ (+ means 30≦Ki(cathepsin L)/Ki(calpain)<50)”.
For `NC(=O)C(=O)C(Cc1ccccc1)NC(=O)c1cccnc1-n1ccc(-c2ccc(Cl)cc2)n1` (centres unmarked) [Example 39, N-(3-Amino-1-benzyl-2,3-dioxopropyl)-2-[3-(4-chlorophenyl)-1H-pyrazol-1-yl]nicotinamide] the same measures were “++ (++ means a Ki(cathepsin S)/Ki(calpain) ratio of ≧100)” and “++ (++ means a Ki(cathepsin L)/Ki(calpain) ratio of ≧50)”.
As for `CCCCC(NC(=O)c1cccnc1-n1ccc(-c2ccc(OC)cc2)n1)C(=O)C(N)=O` (centres unmarked) [Example 49, N-{1-[Amino(oxo)acetyl]pentyl}-2-[3-(4-methoxyphenyl)-1H-pyrazol-1-yl]nicotinamide], the “Sel cat. S: Ki(cathepsin S)/Ki(calpain) ratio” value on cathepsin S is “++ (++ means a Ki(cathepsin S)/Ki(calpain) ratio of ≧100)”. In addition, at cathepsin L, the “Sel cat. L: Ki(cathepsin L)/Ki(calpain) ratio” value is listed as “+ (+ means 30≦Ki(cathepsin L)/Ki(calpain)<50)”.
The like results for `NC(=O)C(=O)C(Cc1cccs1)NC(=O)c1cccnc1-n1ccc(-c2ccc(F)cc2)n1` (centres unmarked) [Example 57, N-[3-Amino-2,3-dioxo-1-(2-thienylmethyl)propyl]-2-[3-(4-fluorophenyl)-1H-pyrazol-1-yl]nicotinamide] were, in that order, “++ (++ means a Ki(cathepsin S)/Ki(calpain) ratio of ≧100)” and “++ (++ means a Ki(cathepsin L)/Ki(calpain) ratio of ≧50)”.
Regarding `CCCCC(NC(=O)c1cccnc1-n1ccc(-c2cccc(N3CCOCC3)c2)n1)C(=O)C(N)=O` (centres unmarked) [Example 59, N-{1-[Amino(oxo)acetyl]pentyl}-2-[3-(3-morpholin-4-ylphenyl)-1H-pyrazol-1-yl]nicotinamide], the “Sel cat. S: Ki(cathepsin S)/Ki(calpain) ratio” value on cathepsin S was “+ (+ means 50≦Ki(cathepsin S)/Ki(calpain)<100)”. The “Sel cat. L: Ki(cathepsin L)/Ki(calpain) ratio” value at cathepsin L is “++ (++ means a Ki(cathepsin L)/Ki(calpain) ratio of ≧50)”.
As for `N#Cc1ccc(-c2ccn(-c3ncccc3C(=O)NC(Cc3ccccc3)C(=O)C(N)=O)n2)cc1` (centres unmarked) [Example 62, N-(3-Amino-1-benzyl-2,3-dioxopropyl)-2-[3-(4-cyanophenyl)-1H-pyrazol-1-yl]nicotinamide], the “Sel cat. S: Ki(cathepsin S)/Ki(calpain) ratio” value on cathepsin S was “++ (++ means a Ki(cathepsin S)/Ki(calpain) ratio of ≧100)”. In addition, the “Sel cat. L: Ki(cathepsin L)/Ki(calpain) ratio” value at cathepsin L is reported as “++ (++ means a Ki(cathepsin L)/Ki(calpain) ratio of ≧50)”.
In the case of `NC(=O)C(=O)C(Cc1ccccc1)NC(=O)c1cccnc1-n1cc2ccccc2n1` (centres unmarked) [Example 78, N-(3-Amino-1-benzyl-2,3-dioxopropyl)-2-(2H-indazol-2-yl)nicotinamide], the “Sel cat. S: Ki(cathepsin S)/Ki(calpain) ratio” value on cathepsin S is “+ (+ means 50≦Ki(cathepsin S)/Ki(calpain)<100)”. In addition, the “Sel cat. L: Ki(cathepsin L)/Ki(calpain) ratio” value on cathepsin L is reported as “++ (++ means a Ki(cathepsin L)/Ki(calpain) ratio of ≧50)”.
For `NC(=O)C(=O)C(Cc1ccccc1)NC(=O)c1ccccc1-n1ccc(-c2ccccc2)n1` (centres unmarked) [Example 106, N-[3-Amino-2,3-dioxo-1-(phenylmethyl)propyl]-2-(3-phenyl-1H-pyrazol-1-yl)benzamide], on cathepsin S, the “Sel cat. S: Ki(cathepsin S)/Ki(calpain) ratio” value is “++ (++ means a Ki(cathepsin S)/Ki(calpain) ratio of ≧100)”. The “Sel cat. L: Ki(cathepsin L)/Ki(calpain) ratio” value at cathepsin L was “+ (+ means 30≦Ki(cathepsin L)/Ki(calpain)<50)”.
Turning to `NC(=O)C(=O)C(Cc1ccccc1)NC(=O)c1cccnc1-n1cc2c(n1)-c1ccccc1OCC2` (centres unmarked) [Example 141, N-[3-Amino-2,3-dioxo-1-(phenylmethyl)propyl]-2-(4,5-dihydro-2H-[1]benzoxepino[5,4-c]pyrazol-2-yl)pyridine-3-carboxamide], the “Sel cat. S: Ki(cathepsin S)/Ki(calpain) ratio” value on cathepsin S was “++ (++ means a Ki(cathepsin S)/Ki(calpain) ratio of ≧100)”. Moreover, the “Sel cat. L: Ki(cathepsin L)/Ki(calpain) ratio” value on cathepsin L is recorded as “++ (++ means a Ki(cathepsin L)/Ki(calpain) ratio of ≧50)”.
Take `COCc1cn(-c2ncccc2C(=O)NC(Cc2ccccc2)C(=O)C(N)=O)nc1-c1ccc(F)cc1` (centres unmarked) [Example 170, N-[3-Amino-2,3-dioxo-1-(phenylmethyl)propyl]-2-{3-(4-fluorophenyl)-4-[(methyloxy)methyl]-1H-pyrazol-1-yl}pyridine-3-carboxamide]: the “Sel cat. L: Ki(cathepsin L)/Ki(calpain) ratio” value at cathepsin L was “+ (+ means 30≦Ki(cathepsin L)/Ki(calpain)<50)”.
Turning to `NC(=O)C(=O)C(Cc1ccccc1)NC(=O)c1cccnc1-n1cc(COc2ccccc2)c(-c2ccc(F)cc2)n1` (centres unmarked) [Example 179, N-[3-Amino-2,3-dioxo-1-(phenylmethyl)propyl]-2-{3-(4-fluorophenyl)-4-[(phenyloxy)methyl]-1H-pyrazol-1-yl}pyridine-3-carboxamide], the “Sel cat. S: Ki(cathepsin S)/Ki(calpain) ratio” value on cathepsin S was “++ (++ means a Ki(cathepsin S)/Ki(calpain) ratio of ≧100)”. On cathepsin L, the “Sel cat. L: Ki(cathepsin L)/Ki(calpain) ratio” value was “+ (+ means 30≦Ki(cathepsin L)/Ki(calpain)<50)”.

The values are drawn from patent US7799809B2, “Carboxamide compounds and their use as calpain inhibitors” (Abbott GmbH & Co. KG, priority 2006, dated 2010).
